Measured values: patent publication US20130040882A1, “USE OF FIBROBLAST GROWTH FACTOR FRAGMENTS” (NOVARTIS AG, priority 2003, published 2013)

System: uterine gene expression
Assay: Gene expression profiling (HGU133A) in the uterus of ovariectomized monkeys treated with estradiol, tamoxifen or raloxifene
Type: in vivo, cynomolgus monkeys (Macaca fascicularis)
Conditions: uterus; OVX monkeys

**Q.** What does the source list for `C#C[C@]1(O)CC[C@H]2[C@@H]3CCc4cc(O)ccc4[C@H]3CC[C@@]21C` [EE]?
**A.** Fold change relative to OVX: ATPase, H+ transporting, lysosomal 38 kda, V0 subunit d isoform 1: 1.9 fold; Fold change relative to OVX: ATPase, Na+/K+ transporting, beta 3 polypeptide: 2.2 fold; Fold change relative to OVX: Biglycan: 1.9 fold; Fold change relative to OVX: CDC28 protein kinase regulatory subunit 2: 3.8 fold; Fold change relative to OVX: Cadherin 11, type 2, OB-cadherin (osteoblast): 3.4 fold; Fold change relative to OVX: Calcium channel, voltage-dependent, beta 2 subunit: 0.6 fold; Fold change relative to OVX: Catenin (cadherin-associated protein), alpha-like 1: 0.5 fold; Fold change relative to OVX: Chitinase 3-like 1 (cartilage glycoprotein-39): 3.9 fold; Fold change relative to OVX: Chloride intracellular channel 4: 1.7 fold; Fold change relative to OVX: Chondroitin sulfate proteoglycan 2 (versican): 3.6 fold; Fold change relative to OVX: Collagen, type I, alpha 1: 6.6 fold; Fold change relative to OVX: Collagen, type IV, alpha 2: 3.3 fold; Fold change relative to OVX: Collagen, type V, alpha 1: 4.0 fold; Fold change relative to OVX: Collagen, type VI, alpha 3: 3.7 fold; Fold change relative to OVX: Collagen, type VIII, alpha 2: 2.1 fold; Fold change relative to OVX: Cyclin D1 (PRAD1: parathyroid adenomatosis 1): 2.4 fold; Fold change relative to OVX: Cysteine-rich, angiogenic inducer, 61: 3.5 fold; Fold change relative to OVX: Cytochrome c oxidase subunit via polypeptide 1: 1.5 fold; Fold change relative to OVX: Cytochrome c oxidase subunit viia polypeptide 2 (liver): 1.8 fold; Fold change relative to OVX: Dermatopontin: 1.9 fold; Fold change relative to OVX: Dishevelled associated activator of morphogenesis 1: 3.1 fold; Fold change relative to OVX: Fibroblast growth factor 2 (basic): 2.1 fold; Fold change relative to OVX: Fibulin 1: 1.6 fold; Fold change relative to OVX: Four and a half LIM domains 2: 3.0 fold; Fold change relative to OVX: G1 to S phase transition 1: 1.6 fold; Fold change relative to OVX: Growth associated protein 43: 2.0 fold; Fold change relative to OVX: H2A histone family, member Y: 1.4 fold; Fold change relative to OVX: Heparan sulfate proteoglycan 2 (perlecan): 3.5 fold; Fold change relative to OVX: Histone H2A.F/Z variant: 1.4 fold; Fold change relative to OVX: Insulin-like growth factor binding protein 2, 36 kda: 7.1 fold; Fold change relative to OVX: Insulin-like growth factor binding protein 5: 5.2 fold; Fold change relative to OVX: Integrin, beta 5: 1.7 fold; Fold change relative to OVX: Intercrine-alpha, mrna sequence: 1.5 fold; Fold change relative to OVX: LDL receptor adaptor protein: 0.6 fold; Fold change relative to OVX: LIM and senescent cell antigen-like domains 1: 3.7 fold; Fold change relative to OVX: Laminin, beta 1: 1.4 fold; Fold change relative to OVX: Latent transforming growth factor beta binding protein 1: 3.6 fold; Fold change relative to OVX: Matrix metalloproteinase 19: 6.3 fold; Fold change relative to OVX: Mitogen-activated protein kinase kinase kinase kinase 4: 0.6 fold; Fold change relative to OVX: Nidogen (enactin): 3.6 fold; Fold change relative to OVX: Osteoglycin (osteoinductive factor, mimecan): 2.2 fold; Fold change relative to OVX: Peroxiredoxin 1: 1.9 fold; Fold change relative to OVX: Phosphatase and tensin homolog (mutated in multiple advanced cancers 1): 1.8 fold; Fold change relative to OVX: Phospholipid transfer protein: 2.0 fold; Fold change relative to OVX: Pituitary tumour-transforming 1 interacting protein: 1.8 fold; Fold change relative to OVX: Procollagen C-endopeptidase enhancer: 3.2 fold; Fold change relative to OVX: Procollagen-proline, 2-oxoglutarate 4-dioxygenase (proline 4-hydroxylase), alpha polypeptide II: 2.6 fold; Fold change relative to OVX: Progesterone receptor: 9.7 fold; Fold change relative to OVX: Protein tyrosine kinase 9: 2.1 fold; Fold change relative to OVX: SET domain, bifurcated 1: 3.0 fold; Fold change relative to OVX: SPARC-like 1 (mast9, hevin): 2.4 fold; Fold change relative to OVX: Secreted frizzled-related protein 1: 7.1 fold; Fold change relative to OVX: Secreted frizzled-related protein 4: 4.2 fold; Fold change relative to OVX: Secreted protein, acidic, cysteine-rich (osteonectin): 2.9 fold; Fold change relative to OVX: Serine (or cysteine) proteinase inhibitor, clade H (heat shock protein 47), member 1, (collagen binding protein 1): 3.3 fold; Fold change relative to OVX: Solute carrier family 22 (organic cation transporter), member 1-like: 1.9 fold; Fold change relative to OVX: Solute carrier family 25 (mitochondrial carrier; adenine nucleotide translocator), member 5: 2.5 fold; Fold change relative to OVX: Stem cell growth factor; lymphocyte secreted C-type lectin: 2.2 fold; Fold change relative to OVX: Tenascin C (hexabrachion): 1.2 fold; Fold change relative to OVX: Testis Enhanced Gene Transcript (Bax Inhibitor 1): 1.8 fold; Fold change relative to OVX: Thioredoxin interacting protein: 0.3 fold; Fold change relative to OVX: Transforming growth factor, beta-induced, 68 kda: 1.7 fold; Fold change relative to OVX: Ubiquinol-cytochrome c reductase, Rieske iron-sulfur polypeptide 1: 1.4 fold; Fold change relative to OVX: Wingless-type MMTV integration site family, member 2B: 2.6 fold; Fold change relative to OVX: Wingless-type MMTV integration site family, member 16: 1.1 fold; Fold change relative to SHAM control: ATPase, H+ transporting, lysosomal 38 kda, V0 subunit d isoform 1: 1.6 fold; Fold change relative to SHAM control: ATPase, Na+/K+ transporting, beta 3 polypeptide: 1.2 fold; Fold change relative to SHAM control: Biglycan: 0.7 fold; Fold change relative to SHAM control: CDC28 protein kinase regulatory subunit 2: 2.3 fold; Fold change relative to SHAM control: Cadherin 11, type 2, OB-cadherin (osteoblast): 2.1 fold; Fold change relative to SHAM control: Calcium channel, voltage-dependent, beta 2 subunit: 1.1 fold; Fold change relative to SHAM control: Catenin (cadherin-associated protein), alpha-like 1: 1.0 fold; Fold change relative to SHAM control: Chitinase 3-like 1 (cartilage glycoprotein-39): 2.8 fold; Fold change relative to SHAM control: Chloride intracellular channel 4: 0.9 fold; Fold change relative to SHAM control: Chondroitin sulfate proteoglycan 2 (versican): 2.6 fold; Fold change relative to SHAM control: Collagen, type I, alpha 1: 2.4 fold; Fold change relative to SHAM control: Collagen, type IV, alpha 2: 1.9 fold; Fold change relative to SHAM control: Collagen, type V, alpha 1: 1.9 fold; Fold change relative to SHAM control: Collagen, type VI, alpha 3: 2.1 fold; Fold change relative to SHAM control: Collagen, type VIII, alpha 2: 1.2 fold; Fold change relative to SHAM control: Cyclin D1 (PRAD1: parathyroid adenomatosis 1): 2.7 fold; Fold change relative to SHAM control: Cysteine-rich, angiogenic inducer, 61: 2.0 fold; Fold change relative to SHAM control: Cytochrome c oxidase subunit via polypeptide 1: 1.3 fold; Fold change relative to SHAM control: Cytochrome c oxidase subunit viia polypeptide 2 (liver): 1.8 fold; Fold change relative to SHAM control: Dermatopontin: 1.1 fold; Fold change relative to SHAM control: Dishevelled associated activator of morphogenesis 1: 2.0 fold; Fold change relative to SHAM control: Fibroblast growth factor 2 (basic): 1.1 fold; Fold change relative to SHAM control: Fibulin 1: 0.9 fold; Fold change relative to SHAM control: Four and a half LIM domains 2: 1.9 fold; Fold change relative to SHAM control: G1 to S phase transition 1: 1.3 fold; Fold change relative to SHAM control: Growth associated protein 43: 0.8 fold; Fold change relative to SHAM control: H2A histone family, member Y: 1.2 fold; Fold change relative to SHAM control: Heparan sulfate proteoglycan 2 (perlecan): 1.6 fold; Fold change relative to SHAM control: Histone H2A.F/Z variant: 1.4 fold
